In the NIST ThermoML archive (doi:10.1016/j.tca.2015.02.020):

Experiment: molar heat capacity at constant pressure; xn = mol fraction of the nth substance listed
Settings: 101 kPa, Small sample (50 mg) DSC

CC(O)CN (stereo unspecified) [1-amino-2-propanol] + O
Settings | molar heat capacity at constant pressure [J/K/mol]
126.79 K, Glass, x1 = 0.15 | 27.11
126.79 K, Glass, x1 = 0.16 | 28.24
126.94 K, Glass, x1 = 0.19 | 28.86
127.55 K, Glass, x1 = 0.19 | 28.57
127.56 K, Glass, x1 = 0.26 | 32.53
127.57 K, Glass, x1 = 0.26 | 32.86
127.69 K, Glass, x1 = 0.15 | 27.64
127.71 K, Glass, x1 = 0.16 | 27.96
127.73 K, Glass, x1 = 0.68 | 51.16
127.76 K, Glass, x1 = 0.68 | 51.16
130.83 K, Glass, x1 = 0.19 | 29.15
130.83 K, Glass, x1 = 0.26 | 33.19
130.96 K, Glass, x1 = 0.15 | 28.71
130.98 K, Glass, x1 = 0.16 | 28.51
131 K, Glass, x1 = 0.68 | 52.86
131.45 K, Glass, x1 = 0.15 | 28.71
131.45 K, Glass, x1 = 0.16 | 30.14
131.61 K, Glass, x1 = 0.19 | 30.31
132.23 K, Glass, x1 = 0.26 | 34.17
132.42 K, Glass, x1 = 0.68 | 52.29
134.1 K, Glass, x1 = 0.19 | 29.73
134.1 K, Glass, x1 = 0.26 | 33.85
134.24 K, Glass, x1 = 0.15 | 29.5
134.25 K, Glass, x1 = 0.16 | 29.05
134.27 K, Glass, x1 = 0.68 | 54
136.13 K, Glass, x1 = 0.15 | 30.3
136.13 K, Glass, x1 = 0.16 | 31.77
136.28 K, Glass, x1 = 0.19 | 32.04
136.9 K, Glass, x1 = 0.26 | 35.49
137.09 K, Glass, x1 = 0.68 | 54.57
140.66 K, Glass, x1 = 0.19 | 31.17
140.66 K, Glass, x1 = 0.26 | 35.49
140.8 K, Glass, x1 = 0.15 | 30.83
140.8 K, Glass, x1 = 0.16 | 33.39
140.81 K, Glass, x1 = 0.15 | 31.63
140.81 K, Glass, x1 = 0.16 | 30.41
140.83 K, Glass, x1 = 0.68 | 56.27
140.96 K, Glass, x1 = 0.19 | 32.9
141.59 K, Glass, x1 = 0.26 | 36.8
141.77 K, Glass, x1 = 0.68 | 55.7
143.95 K, Glass, x1 = 0.19 | 31.75
143.95 K, Glass, x1 = 0.26 | 36.15
144.09 K, Glass, x1 = 0.15 | 31.63
144.1 K, Glass, x1 = 0.16 | 30.95
144.11 K, Glass, x1 = 0.68 | 57.41
145.5 K, Glass, x1 = 0.16 | 34.75
145.65 K, Glass, x1 = 0.19 | 34.35
146.28 K, Glass, x1 = 0.26 | 38.12
146.29 K, Glass, x1 = 0.15 | 33.22
146.45 K, Glass, x1 = 0.68 | 56.84
150.19 K, Glass, x1 = 0.16 | 36.11
150.34 K, Glass, x1 = 0.19 | 35.5
150.53 K, Glass, x1 = 0.19 | 33.48
150.53 K, Glass, x1 = 0.26 | 38.12
150.67 K, Glass, x1 = 0.15 | 33.22
150.68 K, Glass, x1 = 0.16 | 32.31
150.69 K, Glass, x1 = 0.68 | 59.68
150.97 K, Glass, x1 = 0.26 | 39.1
150.99 K, Glass, x1 = 0.15 | 34.29
151.15 K, Glass, x1 = 0.68 | 57.98
153.82 K, Glass, x1 = 0.19 | 34.06
153.82 K, Glass, x1 = 0.26 | 39.1
153.96 K, Glass, x1 = 0.15 | 34.02
153.98 K, Glass, x1 = 0.16 | 33.12
153.98 K, Glass, x1 = 0.68 | 60.82
155.68 K, Glass, x1 = 0.15 | 35.88
155.68 K, Glass, x1 = 0.16 | 37.74
155.68 K, Glass, x1 = 0.19 | 36.94
155.68 K, Glass, x1 = 0.26 | 40.42
155.84 K, Glass, x1 = 0.68 | 59.11
160.38 K, Glass, x1 = 0.16 | 40.45
160.38 K, Glass, x1 = 0.19 | 38.97
160.38 K, Glass, x1 = 0.26 | 42.39
160.4 K, Glass, x1 = 0.15 | 39.07
160.41 K, Glass, x1 = 0.19 | 35.79
160.41 K, Glass, x1 = 0.26 | 41.07
160.54 K, Glass, x1 = 0.68 | 60.82
160.55 K, Glass, x1 = 0.15 | 35.88
160.56 K, Glass, x1 = 0.16 | 34.48
160.57 K, Glass, x1 = 0.68 | 63.09
163.7 K, Glass, x1 = 0.19 | 36.66
163.7 K, Glass, x1 = 0.26 | 42.39
163.84 K, Glass, x1 = 0.15 | 37.74
163.85 K, Glass, x1 = 0.16 | 35.57
163.85 K, Glass, x1 = 0.68 | 64.8
165.08 K, Glass, x1 = 0.19 | 42.72
165.08 K, Glass, x1 = 0.26 | 45.68
165.25 K, Glass, x1 = 0.68 | 64.8
170.29 K, Glass, x1 = 0.19 | 40.7
170.3 K, Glass, x1 = 0.26 | 46
170.45 K, Glass, x1 = 0.68 | 68.21
173.75 K, Glass, x1 = 0.68 | 73.89
183.93 K, Liquid, x1 = 0.26 | 85.44
184.09 K, Liquid, x1 = 0.68 | 124.48
188.66 K, Liquid, x1 = 0.26 | 85.11
188.82 K, Liquid, x1 = 0.68 | 125.62
190.11 K, Liquid, x1 = 0.19 | 83.13
190.11 K, Liquid, x1 = 0.26 | 88.06
190.26 K, Liquid, x1 = 0.15 | 76.81
190.26 K, Liquid, x1 = 0.68 | 135.28
190.27 K, Liquid, x1 = 0.16 | 77.92
193.38 K, Liquid, x1 = 0.26 | 84.78
193.42 K, Liquid, x1 = 0.19 | 81.97
193.42 K, Liquid, x1 = 0.26 | 87.74
193.54 K, Liquid, x1 = 0.68 | 126.75
193.57 K, Liquid, x1 = 0.15 | 76.28
193.58 K, Liquid, x1 = 0.16 | 77.11
193.58 K, Liquid, x1 = 0.68 | 135.28
198.11 K, Liquid, x1 = 0.16 | 79.01
198.11 K, Liquid, x1 = 0.26 | 84.78
198.13 K, Liquid, x1 = 0.15 | 73.89
198.27 K, Liquid, x1 = 0.68 | 126.75
200.05 K, Liquid, x1 = 0.19 | 80.53
200.05 K, Liquid, x1 = 0.26 | 87.74
200.19 K, Liquid, x1 = 0.15 | 76.02
200.19 K, Liquid, x1 = 0.68 | 136.41
200.2 K, Liquid, x1 = 0.16 | 76.29
202.84 K, Liquid, x1 = 0.19 | 80.53
202.84 K, Liquid, x1 = 0.26 | 85.44
202.85 K, Liquid, x1 = 0.16 | 79.28
202.87 K, Liquid, x1 = 0.15 | 74.69
203 K, Liquid, x1 = 0.68 | 126.75
203.35 K, Liquid, x1 = 0.19 | 80.24
203.36 K, Liquid, x1 = 0.26 | 88.06
203.5 K, Liquid, x1 = 0.15 | 75.75
203.5 K, Liquid, x1 = 0.68 | 136.98
203.51 K, Liquid, x1 = 0.16 | 76.29
207.57 K, Liquid, x1 = 0.19 | 80.82
207.57 K, Liquid, x1 = 0.26 | 86.42
207.58 K, Liquid, x1 = 0.16 | 79.82
207.6 K, Liquid, x1 = 0.15 | 75.49
